Laboratory results from patent publication US20250049970A1, “DLL3 TARGETING PEPTIDES AND CONSTRUCTS THEREOF” (MARIANA ONCOLOGY INC., priority 2023, published 2025).
Where a SMILES comes first, the peptide text is derived from it. Bridges are numbered along the chain shown (N, C = ends). [ ]: non-standard residue; d: D form. The star is where a group is joined. DOTA = O=C(O)CN1CCN(CC(=O)O)CCN(CC(=O)*)CCN(CC(=O)O)CC1; X1 = O=CCN1CCN(CC(=O)O)CCN(CC(=O)*)CCN(CC(=O)O)CC1; 2Nal = N[C@@H](Cc1ccc2ccccc2c1)C(=O)O; Gly(4-THP) = N[C@H](C(=O)O)C1CCOCC1; aIle = CC[C@@H](C)[C@H](N)C(=O)O; tBuAla = CC(C)(C)C[C@H](N)C(=O)O; Cha = N[C@@H](CC1CCCCC1)C(=O)O; Chg = N[C@H](C(=O)O)C1CCCCC1; NMeNle = CCCC[C@H](NC)C(=O)O

Experiments:
CT26.DLL3 cells [1] = experiment: Cell binding (total uptake) of [177Lu]Lu-labeled peptide, CT26.DLL3 cells; assay type: cell-based; conditions: 1 h, 37° C.
Experimental: (§1) [^177Lu]LuCl3 was received from venders in HCl solution. For every mCi of [^177Lu]LuCl3 added to the reaction vial (1.5 mL Eppendorf vial), ammonium acetate buffer (0.2 M, pH 4.9, 100 μL, containing 1% w/v ascorbic acid and 6% v/v ethanol) and peptide conjugate (1 nmol; also referred to herein as “chelator-peptides”) was added. The pH of the solution was determined to be approximately 5 by using pH strips. The reaction vial was incubated at 80° C., 700 RPM for 17-20 minutes. A sample from the reaction was analyzed by RP-HPLC using an Agilent Infinity II 1260 HPLC to determine reaction completion and radiochemical purity of [^177Lu]Lu-chelator-peptides. HPLC conditions: Waters XBridge BEH C18 Column, 130A, 3.5 μm, 4.6 mm×250 mm; mobile phase: Solvent A=water (with 0.1% formic acid), solvent B=acetonitrile (with 0.1% formic acid). Gradients: 25-45% B in 10 minutes, 45-65% B in 12 minutes, 65-90% in 6 minutes at a flow rate of 0.5 mL/minutes Required amounts of the product was formulated in 1% PBSA for cell studies.
(§2) The study was conducted using SHP-77, CT26.WT, CT26.DLL3, and HEK293.DLL3 cells (Table 9)
(§3) Adherent cell studies: The cells were cultured in appropriate culture media (20 mL) in tissue culture treated T150 flasks at 37° C. and 5% C02. Adherent cells were detached (60-70% confluent) using 5 mL Versene at 37° C. for 3 minutes. After confirming the viability using countess and count of detached cells using Trypan blue, the cells were centrifuged at 4° C. for 5 minutes (1,000 rpm). The cell pellet obtained was washed once with PBS and resuspended in 1% PBSA to obtain the desired cell concentration (5-25 million cells/mL).
(§4) Cell numbers used for the assay were in the range of 5 million cells/condition-25 million cells/condition.
(§5) Total uptake: Cells were incubated with 300 μL (0.8 μCi) of the incubation buffer (containing radiolabeled peptide [^177Lu]Lu-test peptide) for 1 hour at 37° C. (Table 10). Post incubation, the cells were pelleted and washed 2 times using cold PBS+1% BSA. The supernatant and washes were combined and counted together as “unbound fraction” in a gamma counter. The cells were then resuspended in 300 μL of 1% PBS+1% BSA and counted in the gamma counter as “bound fraction”.
(§6) In these Tables, “A” represents % s ≤25; “B” represents 25 <% ≤50; “C” represents % >50.

[2] = system: nude mice bearing SHP-77 tumors; experiment: Ex vivo biodistribution of radiolabeled peptides (% IA/g) in nude mice bearing SHP-77 tumors; conditions: [177Lu]Lu labelling, 24 hours post-injection, intravenous
Summary of the method: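 [177Lu]Lu-peptides were given as an IV tail-vein bolus once tumors reached 200-400 mm^3. Injected activity was set per mouse from syringe dose-calibrator readings. At set time points, tissues were weighed and gamma-counted, and counts were decay-corrected to injection and expressed as % IA/g.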

DLL3 = target: T1, DLL3 (Homo sapiens, UniProt Q9NYJ7); experiment: SPR KD, biotinylated human DLL3 on streptavidin chip (Table 8); set-up: biotin (biotinylated); conditions: biotinylated human DLL3 on streptavidin sensor chip, 25° C., 1:1 binding model; read-out: SPR KD
T1 sequence (Q9NYJ7 27-618): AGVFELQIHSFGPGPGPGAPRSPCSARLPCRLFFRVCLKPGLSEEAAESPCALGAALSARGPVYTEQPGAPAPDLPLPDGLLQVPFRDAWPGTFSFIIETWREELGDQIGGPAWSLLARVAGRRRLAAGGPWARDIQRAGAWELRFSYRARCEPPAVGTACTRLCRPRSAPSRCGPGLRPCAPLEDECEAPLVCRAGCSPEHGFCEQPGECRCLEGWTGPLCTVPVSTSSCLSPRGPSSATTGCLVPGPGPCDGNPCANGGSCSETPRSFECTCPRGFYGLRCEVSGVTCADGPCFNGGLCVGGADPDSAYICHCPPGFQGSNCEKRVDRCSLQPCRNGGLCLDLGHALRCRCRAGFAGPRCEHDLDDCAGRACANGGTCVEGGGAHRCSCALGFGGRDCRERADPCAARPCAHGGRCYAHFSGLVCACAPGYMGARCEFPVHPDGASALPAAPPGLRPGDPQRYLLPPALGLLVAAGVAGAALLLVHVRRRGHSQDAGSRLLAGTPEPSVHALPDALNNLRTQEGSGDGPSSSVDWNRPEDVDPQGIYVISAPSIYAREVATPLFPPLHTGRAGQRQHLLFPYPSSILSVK
Text: Biotinylated target ligand human DLL3 was immobilized on a streptavidin sensor chip. A reference surface was set up for nonspecific binding and refractive index changes. […] Sensorgram curves were fitted with 1:1 binding model, and affinity and kinetic parameters were obtained using Biacore Insight evaluation 4.0. software.

CT26.DLL3 cells [3] = experiment: Internalization of [177Lu]Lu-labeled peptide, CT26.DLL3 cells; assay type: cell-based; conditions: 1 h, 37° C.
Experimental: as §1, §2, §3, §4
(§7) Internalization: The resuspended cells in 300 μL of 1% PBSA and counted in the gamma counter as “bound fraction” were collected in 1.5 mL Eppendorf tube and pelleted. The pelleted cells were incubated with 300 μL of 50 mM Glycine pH=2.5 for 3 minutes and then pelleted discarding the supernatant. This process was repeated one more time. The pelleted cells were washed with 300 μL of cold 1% PBSA and then resuspended in 300 μl 0.3M NaOH. This was counted in the gamma counter as “internalized fraction”.
as §6

SHP-77 cells [4] = experiment: Cell binding (total uptake) of [177Lu]Lu-labeled peptide, SHP-77 cells; assay type: cell-based; conditions: 1 h, 37° C.
Experimental: as §1, §2, §3
as §3, with “Suspension” for “Adherent”, “CO2.” for “C02. Adherent cells were detached (60-70% confluent) using 5 mL Versene at 37° C. for 3 minutes.”, “viability” for “viability using countess”
as §4, §5, §6

SHP-77 cells [5] = experiment: Internalization of [177Lu]Lu-labeled peptide, SHP-77 cells; assay type: cell-based; conditions: 1 h, 37° C.
Experimental: as §1, §2, §3
as §3, with “Suspension” for “Adherent”, “CO2.” for “C02. Adherent cells were detached (60-70% confluent) using 5 mL Versene at 37° C. for 3 minutes.”, “viability” for “viability using countess”
as §4, §7, §6

SMILES	% Binding (CT26.DLL3 cells [1])	kidney uptake (% IA/g) [2]	tumor uptake (% IA/g) [2]	Kd (DLL3) [nM]	% Internalization (out of bound fraction) (CT26.DLL3 cells [3])	% Binding (SHP-77 cells [4])	% Internalization (out of bound fraction) (SHP-77 cells [5])
CC(=O)N[C@@H](Cc1c[nH]c2ccccc12)C(=O)N[C@H](C(=O)N[C@@H](CC(C)(C)C)C(=O)N[C@H]1CSSC[C@@H](C(=O)N[C@@H](Cc2c[nH]c3ccccc23)C(=O)N2CCC[C@H]2C(N)=O)NC(=O)[C@H](CC(=O)O)NC(=O)[C@H](CCCCNC(=O)CN2CCN(CC(=O)O)CCN(CC=O)CCN(CC(=O)O)CC2)NC(=O)[C@H](Cc2ccc3ccccc3c2)NC(=O)[C@H](CC(N)=O)NC(=O)[C@H](CC(N)=O)NC1=O)[C@@H](C)O [compound 316, Ac-W-T-(t-Bu-Ala)-C(3)-N-N-(2Nal)-Lys(DOTA)-D-C(3)-W-P-CONH2] (Ac-WT[tBuAla]CNN[2Nal]K(X1)DCWP-NH2; disulfide 4-10)	A (% s ≤25)	D (“D” represents % IA/g > 10 in kidney)	A (“A” represents 0 < % IA/g ≤ 5 in tumor)	< 1	B (25 <% ≤50)	B (25 <% ≤50)	C (% >50)
CC(=O)N[C@@H](Cc1c[nH]c2ccccc12)C(=O)N[C@H](C(=O)N[C@H](C(=O)N[C@H]1CSSC[C@@H](C(=O)N[C@@H](Cc2c[nH]c3ccccc23)C(=O)N2CCC[C@H]2C(N)=O)NC(=O)[C@H](CC(=O)O)NC(=O)[C@H](CCCCNC(=O)CN2CCN(CC(=O)O)CCN(CC(=O)O)CCN(CC(=O)O)CC2)NC(=O)[C@H](Cc2ccc3ccccc3c2)NC(=O)[C@H](CC(N)=O)NC(=O)[C@H](CC(N)=O)NC1=O)C1CCOCC1)[C@@H](C)O [compound 317, Ac-W-T-(THPG)-C(3)-N-N-(2Nal)-Lys(DOTA)-D-C(3)-W-P-CONH2] (Ac-WT[Gly(4-THP)]CNN[2Nal]K(DOTA)DCWP-NH2; disulfide 4-10)	A (% s ≤25)	D (“D” represents % IA/g > 10 in kidney)	A (“A” represents 0 < % IA/g ≤ 5 in tumor)	< 1	C (% >50)	A (% s ≤25)	B (25 <% ≤50)
CC(=O)N[C@@H](Cc1c[nH]c2ccccc12)C(=O)N[C@H](C(=O)N[C@H](C(=O)N[C@H]1CSSC[C@@H](C(=O)N[C@@H](Cc2c[nH]c3ccccc23)C(=O)N2CCC[C@H]2C(N)=O)NC(=O)[C@H](CC(=O)O)NC(=O)[C@H](CCCCNC(=O)CN2CCN(CC(=O)O)CCN(CC(=O)O)CCN(CC(=O)O)CC2)NC(=O)[C@H](Cc2ccc3ccccc3c2)NC(=O)[C@H](CC(N)=O)NC(=O)[C@H](CC(N)=O)NC1=O)C1CCCCC1)[C@@H](C)O [compound 318, Ac-W-T-(Chg)-C(3)-N-N-(2Nal)-Lys(DOTA)-D-C(3)-W-P-CONH2] (Ac-WT[Chg]CNN[2Nal]K(DOTA)DCWP-NH2; disulfide 4-10)	A (% s ≤25)	D (“D” represents % IA/g > 10 in kidney)	A (“A” represents 0 < % IA/g ≤ 5 in tumor)	< 1	C (% >50)	B (25 <% ≤50)	C (% >50)
CCCC[C@@H](C(=O)N[C@H]1CSSC[C@@H](C(=O)N[C@@H](Cc2c[nH]c3ccccc23)C(=O)N2CCC[C@H]2C(N)=O)NC(=O)[C@H](CC(=O)O)NC(=O)[C@H](CCCCNC(=O)CN2CCN(CC(=O)O)CCN(CC(=O)O)CCN(CC(=O)O)CC2)NC(=O)[C@H](Cc2ccc3ccccc3c2)NC(=O)[C@H](CC(N)=O)NC(=O)[C@H](CC(N)=O)NC1=O)N(C)C(=O)[C@@H](NC(=O)[C@H](Cc1c[nH]c2ccccc12)NC(C)=O)[C@@H](C)O [compound 320, Ac-W-T-(NMe-Nle)-C(3)-N-N-(2Nal)-Lys(DOTA)-D-C(3)-W-P-CONH2] (Ac-WT[NMeNle]CNN[2Nal]K(DOTA)DCWP-NH2; disulfide 4-10)	A (% s ≤25)	D (“D” represents % IA/g > 10 in kidney)	A (“A” represents 0 < % IA/g ≤ 5 in tumor)	< 1	B (25 <% ≤50)	A (% s ≤25)	B (25 <% ≤50)
CC[C@@H](C)[C@H](NC(=O)[C@@H](NC(=O)[C@H](Cc1c[nH]c2ccccc12)NC(C)=O)[C@@H](C)O)C(=O)N[C@H]1CSSC[C@@H](C(=O)N[C@@H](Cc2c[nH]c3ccccc23)C(=O)N2CCC[C@H]2C(N)=O)NC(=O)[C@H](CC(=O)O)NC(=O)[C@H](CCCCNC(=O)CN2CCN(CC(=O)O)CCN(CC(=O)O)CCN(CC(=O)O)CC2)NC(=O)[C@H](Cc2ccc3ccccc3c2)NC(=O)[C@H](CC(N)=O)NC(=O)[C@H](CC(N)=O)NC1=O [compound 322, Ac-W-T-(Allo-Ile)-C(3)-N-N-(2Nal)-Lys(DOTA)-D-C(3)-W-P-CONH2] (Ac-WT[aIle]CNN[2Nal]K(DOTA)DCWP-NH2; disulfide 4-10)	A (% s ≤25)	D (“D” represents % IA/g > 10 in kidney)	A (“A” represents 0 < % IA/g ≤ 5 in tumor)	< 1	C (% >50)	A (% s ≤25)	B (25 <% ≤50)
CC(=O)N[C@@H](Cc1c[nH]c2ccccc12)C(=O)N[C@H](C(=O)N[C@@H](CC1CCCCC1)C(=O)N[C@H]1CSSC[C@@H](C(=O)N[C@@H](Cc2c[nH]c3ccccc23)C(=O)N2CCC[C@H]2C(N)=O)NC(=O)[C@H](CC(=O)O)NC(=O)[C@H](CCCCNC(=O)CN2CCN(CC(=O)O)CCN(CC(=O)O)CCN(CC(=O)O)CC2)NC(=O)[C@H](Cc2ccc3ccccc3c2)NC(=O)[C@H](CC(N)=O)NC(=O)[C@H](CC(N)=O)NC1=O)[C@@H](C)O [compound 323, Ac-W-T-(CHA)-C(3)-N-N-(2Nal)-Lys(DOTA)-D-C(3)-W-P-CONH2] (Ac-WT[Cha]CNN[2Nal]K(DOTA)DCWP-NH2; disulfide 4-10)	A (% s ≤25)	D (“D” represents % IA/g > 10 in kidney)	A (“A” represents 0 < % IA/g ≤ 5 in tumor)	< 1	C (% >50)	A (% s ≤25)	B (25 <% ≤50)
